Measured values: patent publication EP0719251B1, “BICYCLO (2.2.2) OCTANE DERIVATIVES CHOLECYSTOKININ AND/OR GASTRIN ANTAGONISTS” (JAMES BLACK FOUNDATION LIMITED, priority 1993, dated 1995)

How the values were obtained:
CCKA = target: T1, CCKA (Cavia porcellus, UniProt Q63931); assay: CCKA binding assay in guinea-pig pancreas membranes; conditions: [125I]-CCK8(S) 200pM; for CCKA pKi: containing 0.375 µM PD134,308; for Ki: containing 0.375 µM PD134,308, read-out: CCKA pKi (converted)
T1 construct: The pancreatata were removed from male guinea-pigs (200-300g; Dunkin Hartley); from tissue; host or cells: pancreas membranes of male Dunkin Hartley guinea-pigs
T1 sequence (Q63931 1-430): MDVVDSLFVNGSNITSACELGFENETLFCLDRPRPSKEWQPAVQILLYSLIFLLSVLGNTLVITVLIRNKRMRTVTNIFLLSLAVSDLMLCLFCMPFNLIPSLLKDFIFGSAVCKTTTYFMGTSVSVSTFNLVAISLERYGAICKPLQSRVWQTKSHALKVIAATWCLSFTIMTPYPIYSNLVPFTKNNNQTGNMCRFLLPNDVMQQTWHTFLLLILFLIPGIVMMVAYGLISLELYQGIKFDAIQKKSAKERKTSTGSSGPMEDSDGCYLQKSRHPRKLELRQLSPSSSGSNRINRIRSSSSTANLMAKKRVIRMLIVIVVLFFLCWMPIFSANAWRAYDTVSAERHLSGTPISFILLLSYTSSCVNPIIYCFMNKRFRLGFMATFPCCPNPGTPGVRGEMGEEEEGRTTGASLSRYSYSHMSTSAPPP
Method: The compounds of the examples were also tested in a CCKÅ binding assay as follows:
The pancreatata were removed from male guinea-pigs (200-300g; Dunkin Hartley) and placed in ice-cold HEPES buffer (pH 7.2 @ 21 ± 3° ). The pancreatata were homogenised in 40 ml ice-cold HEPES buffer using a polytron (Brinkmann, PT10, setting 10) 4 x 1 second.
The homogenate was centrifuged at 39,800g for 15 min at 4°. The supernatant was discarded and the pellet re-suspended using a Teflon-in-glass homogeniser in 20 volumes of fresh buffer and recentrifuged as above. The final pellet was re-suspended using a Teflon-in-glass homogeniser to a tissue concentration of 1 mg.ml^-1 (original wet weight), and filtered through 500 µm pore-size Nytex mesh.
The membranes (400µl; containing 0.375 µM PD134,308) are incubated for 150 minutes at 21 ± 3° in a final volume of 0.5ml with HEPES buffer containing [^125I]-CCK8(S) (50µl; 200pM) and competing compound. Total and non-specific binding of [^125I]-CCK8 (S) are defined using 50µl of buffer and 50µl of 100nM L-364,718 respectively. The assay is terminated by rapid filtration through pre-soaked Whatman GF/B filters using a Brandell Cell Harvester. The filters were washed (3 x 3ml) with ice-cold 50mM Tris HCl (pH 7.4 at 4° ) and bound radioactivity is determined by counting (1 min) in a gamma counter.

gastrin = target: T2, gastrin (Rattus norvegicus, UniProt P30553); assay: gastrin antagonist activity in an immature rat stomach assay; conditions: isolated immature rat stomach, cumulative pentagastrin dose-response curves, acid secretion; for Gastrin pKB: 60 min; for Kb: read-out: Gastrin pKB (converted)
T2 construct: The stomach was excised and flushed with ca. 1 ml of unbuffered physiological saline solution; from tissue; host or cells: isolated whole stomach of immature rats (33-50 g, ca. 21 days old)
T2 sequence (P30553 1-452): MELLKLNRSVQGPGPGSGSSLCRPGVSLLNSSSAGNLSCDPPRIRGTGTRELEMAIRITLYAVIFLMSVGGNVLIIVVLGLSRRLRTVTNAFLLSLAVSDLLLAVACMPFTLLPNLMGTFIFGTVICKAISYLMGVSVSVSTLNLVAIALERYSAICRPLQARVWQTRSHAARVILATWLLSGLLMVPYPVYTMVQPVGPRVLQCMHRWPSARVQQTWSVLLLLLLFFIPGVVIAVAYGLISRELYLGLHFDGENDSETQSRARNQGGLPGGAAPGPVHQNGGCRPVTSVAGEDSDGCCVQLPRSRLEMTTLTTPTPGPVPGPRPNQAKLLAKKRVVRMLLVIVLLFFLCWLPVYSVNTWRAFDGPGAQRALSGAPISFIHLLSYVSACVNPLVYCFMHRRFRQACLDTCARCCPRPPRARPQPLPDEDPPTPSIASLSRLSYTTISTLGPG
Method in brief: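 Isolated stomachs from immature rats (33-50 g, ca. 21 days) perfused at 1 ml min^-1 with O2-gassed unbuffered saline, perfusate pH monitored by electrode. After 120 min stabilisation, compounds added to serosal bath; cumulative pentagastrin dose-response curves begun 60 min later.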

CCKB receptor = target: T3, CCKB receptor (Mus musculus, UniProt P56481); assay: radioligand binding assay at the CCKB receptor in mouse cortical membranes; conditions: [125I]-CCK8S 200pM, 150 min at 21 ± 3°C; for Ki: read-out: CCKB pKi (converted)
T3 construct: The whole brains from male mice (CD1 22-25g; Charles River) were removed; from tissue; host or cells: cerebral cortex membranes of male CD1 mice
T3 sequence (P56481 1-453): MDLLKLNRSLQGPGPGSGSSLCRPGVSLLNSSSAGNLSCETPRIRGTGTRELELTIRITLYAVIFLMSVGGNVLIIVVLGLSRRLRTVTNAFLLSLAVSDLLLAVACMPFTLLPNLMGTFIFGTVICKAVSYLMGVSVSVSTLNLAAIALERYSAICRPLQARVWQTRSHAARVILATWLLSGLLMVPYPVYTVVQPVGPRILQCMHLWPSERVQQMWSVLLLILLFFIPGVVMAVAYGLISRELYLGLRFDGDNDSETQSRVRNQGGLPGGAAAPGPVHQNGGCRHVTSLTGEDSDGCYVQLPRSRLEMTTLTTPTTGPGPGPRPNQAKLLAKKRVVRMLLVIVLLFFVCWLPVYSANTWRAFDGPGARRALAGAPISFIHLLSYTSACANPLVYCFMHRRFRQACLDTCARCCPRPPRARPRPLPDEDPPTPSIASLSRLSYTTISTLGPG
Method in brief: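 Radioligand binding was quantified by gamma counting after filtration through GF/B filters and cold 50 mM Tris-HCl (pH 7.4) washes. Tissue source was male CD1 mouse cortex, homogenised and twice centrifuged, then resuspended at 2 mg.ml^-1 original wet weight in pH 7.2 HEPES buffer containing bacitracin.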

Row | SMILES | CCKA pKi (CCKA) | Gastrin pKB (gastrin) | CCKB pKi (CCKB receptor) | Ki (CCKA) [µM] | Kb (gastrin) [µM] | Ki (CCKB receptor) [µM]
1 | O=C(O)c1cc(NC(=O)[C@H](Cc2ccc3ccccc3c2)NC(=O)C2C3c4ccccc4C(c4ccccc43)C2C(=O)NCC23CC4CC(CC(C4)C2)C3)cc(C(=O)O)c1 (single isomer, unassigned) [Example 14, cis-7-(1S-(3,5-dicarboxyphenylaminocarbonyl)-2-(2-naphthyl) -ethylaminocarbonyl)-8-(1-adamantanemethylaminocarbonyl)-2,3,5,6-dibenzobicyclo[2.2.2]octane] | 6.1 | 6.9 | 6.5 | – | – | –
2 | O=C(O)c1cc(NC(=O)[C@H](Cc2ccc3ccccc3c2)NC(=O)C2C3c4ccccc4C(c4ccccc43)C2C(=O)NCC23CC4CC(CC(C4)C2)C3)cc(C(=O)O)c1 (single isomer, unassigned) [Example 15, cis-7-(1S-(3,5-dicarboxyphenylaminocarbonyl)-2-(2-naphthyl)ethylaminocarbonyl)-8-(1-adamantanemethylaminocarbonyl) -2,3,5,6-dibenzobicyclo[2.2.2]octane] | 7.0 | 5.8 | 6.7 | – | – | –
3 | O=C(O)c1cc(NC(=O)[C@H](Cc2ccccc2F)NC(=O)C2C3c4ccccc4C(c4ccccc43)C2C(=O)NCC23CC4CC(CC(C4)C2)C3)cc(C(=O)O)c1 (single isomer, unassigned) [Example 16, cis-7-(1S-(3,5-dicarboxyphenylaminocarbonyl)-2-(2-fluorophenyl)-ethylaminocarbonyl)-8-(1-adamantanemethylaminocarbonyl) -2,3,5,6-dibenzobicyclo[2.2.2]octane] | – | – | – | 1 | 0.00251 | 0.00316
4 | O=C(O)c1cc(NC(=O)[C@H](Cc2ccccc2F)NC(=O)C2C3c4ccccc4C(c4ccccc43)C2C(=O)NCC23CC4CC(CC(C4)C2)C3)cc(C(=O)O)c1 (single isomer, unassigned) [Example 17, cis-7-(1S-(3,5-dicarboxyphenylaminocarbonyl)-2-(2-fluorophenyl)ethylaminocarbonyl)-8-(1-adamantanemethylaminocarbonyl) -2,3,5,6-dibenzobicyclo[2.2.2]octane] | – | – | – | 0.794 | 0.01 | 0.00631
5 | O=C(O)c1cc(NC(=O)[C@H](Cc2cccc(F)c2)NC(=O)C2C3c4ccccc4C(c4ccccc43)C2C(=O)NCC23CC4CC(CC(C4)C2)C3)cc(C(=O)O)c1 (single isomer, unassigned) [Example 18, cis-7-(1S-(3,5-dicarboxyphenylaminocarbonyl)-2-(3-fluorophenyl) -ethylaminocarbonyl)-8-(1-adamantanemethylaminocarbonyl)-2,3,5,6-dibenzobicyclo[2.2.2]octane] | – | – | – | 0.316 | 0.00398 | 0.00316

Now from value to compound:

Row | CCKA pKi (CCKA) | Gastrin pKB (gastrin) | CCKB pKi (CCKB receptor) | Ki (CCKA) [µM] | Kb (gastrin) [µM] | Ki (CCKB receptor) [µM] | SMILES
6 | – | – | – | 0.398 | 0.0251 | 0.01 | O=C(O)c1cc(NC(=O)[C@H](Cc2cccc(F)c2)NC(=O)C2C3c4ccccc4C(c4ccccc43)C2C(=O)NCC23CC4CC(CC(C4)C2)C3)cc(C(=O)O)c1 (single isomer, unassigned) [Example 19, cis-7-(1S-(3,5-dicarboxyphenylaminocarbonyl)-2-(3-fluorophenyl)ethylaminocarbonyl)-8-(1-adamantanemethylaminocarbonyl) -2,3,5,6-dibenzobicyclo[2.2.2]octane]
7 | – | – | – | 1.26 | 0.0631 | 0.0501 | O=C(O)c1cc(NC(=O)[C@@H](Cc2cccs2)NC(=O)C2C3c4ccccc4C(c4ccccc43)C2C(=O)NCC23CC4CC(CC(C4)C2)C3)cc(C(=O)O)c1 (single isomer, unassigned) [Example 21, cis-7-(1R-(3,5-dicarboxyphenylaminocarbonyl)-2-(2-thiophenyl)ethylaminocarbonyl)-8-(1-adamantanemethylaminocarbonyl)-2,3,5,6-dibenzobicyclo[2.2.2]octane]
8 | – | – | – | 3.98 | 0.0501 | 0.02 | O=C(O)c1cc(NC(=O)[C@H](Cc2ccccc2)NC(=O)C2C3c4ccccc4C(c4ccccc43)C2C(=O)NCC2CCCCC2)cc(C(=O)O)c1 (single isomer, unassigned) [Example 30, cis-7-(1S-(3,5-dicarboxyphenylaminocarbonyl)-2-phenylethylaminocarbonyl)-8-(1-cyclohexanemethylaminocarbonyl)-2,3,5,6-dibenzobicyclo [2.2.2] octane]
9 | – | – | – | 1.26 | 0.251 | 0.2 | O=C(O)c1cc(NC(=O)[C@H](Cc2ccccc2)NC(=O)C2C3c4ccccc4C(c4ccccc43)C2C(=O)NCC2CCCCC2)cc(C(=O)O)c1 (single isomer, unassigned) [Example 31, cis-7-(1S-(3,5-dicarboxyphenylaminocarbonyl) -2-phenylethylaminocarbonyl)-8-(cyclohexanemethylaminocarbonyl) -2,3,5,6-dibenzobicyclo[2.2.2]octane]
10 | – | – | – | 0.501 | 0.0251 | 0.01 | O=C(O)c1cc(NC(=O)[C@H](Cc2ccccc2)NC(=O)C2C3c4ccccc4C(c4ccccc43)C2C(=O)NCc2cccc3ccccc23)cc(C(=O)O)c1 (single isomer, unassigned) [Example 32, cis-7-(1S-(3,5-dicarboxyphenylaminocarbonyl)-2-phenylethylaminocarbonyl)-8-(1-naphthalenemethylaminocarbonyl) -2,3,5,6-dibenzobicyclo [2.2.2]octane]
11 | – | – | – | 0.251 | 0.316 | 0.0398 | O=C(O)c1cc(NC(=O)[C@H](Cc2ccccc2)NC(=O)C2C3c4ccccc4C(c4ccccc43)C2C(=O)NCc2ccc(Cl)c(Cl)c2)cc(C(=O)O)c1 (single isomer, unassigned) [Example 34, cis-7-(1S-(3,5-dicarboxyphenylaminocarbonyl) -2-phenylethylaminocarbonyl) -8-(3,4-dichlorophenyl-methylaminocarbonyl) -2,3,5,6-dibenzobicyclo[2.2.2]octane]
